# Data as given in patent publication US11331299B2, “Medicinal use of serrulatane diterpenes” (The University of Sydney, priority 2016, dated 2022).
# Read-outs that look alike come from different tables or passages of the source.
# Experiments:
# [1] = target: T1, BRPF1-1 (h) bromodomain (Homo sapiens, UniProt P55201); assay: Epigenetic binding assay, Bromodomain; details: Table 4; read-out: Reference IC50
# T1 construct: Bromodomain
# T1 sequence (P55201 628-732 limits assumed): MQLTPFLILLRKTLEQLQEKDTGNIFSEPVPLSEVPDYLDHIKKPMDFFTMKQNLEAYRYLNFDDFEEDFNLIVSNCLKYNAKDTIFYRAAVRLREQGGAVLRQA
# [2] = target: receptors (Bioprint panel); assay: biochemical; format: binding; details: read-out: Reference Compound IC50
# [3] = system: CCD 841 CoN; assay: OncoPanel normal cell proliferation assay (3-day); format: cell-based; details: Homo sapiens, 72 h, colon epithelial, 3-day incubation; for EC50: read-out: Cell Count EC50; for GI50: read-out: Cell Count GI50; for IC50: read-out: Cell Count IC50
# [4] = system: Wi38; assay: OncoPanel normal cell proliferation assay (3-day); format: cell-based; details: Homo sapiens, WI-38, 72 h, Wi38, lung fibroblast, 3-day incubation; for EC50: read-out: Cell Count EC50; for GI50: read-out: Cell Count GI50; for IC50: read-out: Cell Count IC50
# [5] = system: HREC; assay: OncoPanel normal cell proliferation assay (3-day); format: cell-based; details: 72 h, renal mixed epithelial, 3-day incubation; for EC50: read-out: Cell Count EC50; for GI50: read-out: Cell Count GI50; for IC50: read-out: Cell Count IC50
# [6] = system: HMEC; assay: OncoPanel normal cell proliferation assay (3-day); format: cell-based; details: Homo sapiens, 72 h, HMEC, mammary epithelial, 3-day incubation; for EC50: read-out: Cell Count EC50; for GI50: read-out: Cell Count GI50; for IC50: read-out: Cell Count IC50
# [7] = target: T2, TAF1(1) (h) bromodomain (Homo sapiens, UniProt P21675); assay: Epigenetic binding assay, Bromodomain; details: Table 4; read-out: Reference IC50
# T2 construct: Bromodomain
# T2 sequence (P21675 1397-1505 limits assumed): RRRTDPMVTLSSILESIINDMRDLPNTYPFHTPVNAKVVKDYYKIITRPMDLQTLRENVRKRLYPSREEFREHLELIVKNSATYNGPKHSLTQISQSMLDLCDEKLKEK
# [8] = target: T3, TAF1(2)(h) bromodomain (Homo sapiens, UniProt P21675); assay: Epigenetic binding assay, Bromodomain; details: Table 4; read-out: Reference IC50
# T3 construct: Bromodomain
# T3 sequence (P21675 1519-1628 limits assumed): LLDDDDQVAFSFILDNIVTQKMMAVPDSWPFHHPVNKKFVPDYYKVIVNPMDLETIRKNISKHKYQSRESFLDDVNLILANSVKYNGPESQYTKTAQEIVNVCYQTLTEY
# [9] = target: T4, KAT2A (GCN5L2) (h) bromodomain (Homo sapiens, UniProt Q92830); assay: Epigenetic binding assay, Bromodomain; details: Table 9, inhibition/concentration-response curve; read-out: IC50
# T4 construct: Bromodomain
# T4 sequence (Q92830 728-832 limits assumed): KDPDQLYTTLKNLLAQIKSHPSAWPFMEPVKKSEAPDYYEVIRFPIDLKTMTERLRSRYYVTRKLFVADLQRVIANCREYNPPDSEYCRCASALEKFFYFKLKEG
# [10] = system: human pancreatic carcinoma MIA PaCa-2; details: 80 mg/kg Q4D x 4 IP
# [11] = target: T5, FALZ (h) bromodomain (Homo sapiens, UniProt Q12830); assay: Epigenetic binding assay, Bromodomain; details: Table 4; read-out: Reference IC50
# T5 construct: Bromodomain; Eurofins CEREP (France), contract laboratory
# [12] = target: T6, ATAD2A (h) bromodomain (Homo sapiens, UniProt Q6PL18); assay: Epigenetic binding assay, Bromodomain; details: Table 9, inhibition/concentration-response curve; read-out: IC50
# T6 construct: Bromodomain
# T6 sequence (Q6PL18 980-1092 limits assumed): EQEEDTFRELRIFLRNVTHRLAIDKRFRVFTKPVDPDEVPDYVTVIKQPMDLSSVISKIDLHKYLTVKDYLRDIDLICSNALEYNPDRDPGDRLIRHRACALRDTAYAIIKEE
# [13] = target: T7, SP140 (h) bromodomain (Homo sapiens, UniProt Q13342); assay: Epigenetic binding assay, Bromodomain
# T7 construct: SP140 (h) bromodomain
# T7 sequence (Q13342 754-857 limits assumed): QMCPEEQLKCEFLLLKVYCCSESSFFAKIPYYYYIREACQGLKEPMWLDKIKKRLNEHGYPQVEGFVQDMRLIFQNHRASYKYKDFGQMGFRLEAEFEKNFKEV
# [14] = target: T8, PHIP(2) (h) bromodomain (Homo sapiens, UniProt Q8WWQ0); assay: Epigenetic binding assay, Bromodomain; details: Table 4; read-out: Reference IC50
# T8 construct: Bromodomain
# [15] = format: in vivo, female NOD/SCID mice; details: Study 1, IP, 35 mg/kg
# Experimental: Two studies were conducted by Eurofins Panlabs Taiwan, Ltd. The purpose of Study 1 was to assess the possible adverse effects of Compound 1 alone or in combination with […] in Maximum Tolerated Dose (MTD) assay. The purpose of Study 2 is a follow-up study performed at escalating doses.
# Compound 1 was dissolved in 10% Tween 20/90% PBS or 20% Tween 20/80% PBS for IP injections. Compound 1 was administrated alone or in combination with […] at a dosing volume of 10 or 20 mL/kg for each substance.
# For mortality, test substance (Compound 1; 100 mg/kg) alone or in combination with […] (8.75, 17.5, or 35 mg/kg; given on the same day) was administered to mice by IP injection to evaluate the possible adverse effects in MTD assay. […]. […]
# A follow-up MTD study was performed to evaluate for the adverse effects of the test substance (Compound 1) at escalating doses alone or in combination with […] (17.5 mg/kg) via IP in a group of 3 female NOD/SCID mice at 6-7 weeks of age.
# For mortality, treatment with Compound 1 at escalating doses (200 mg/kg) alone and in combination with […] (17.5 mg/kg; given on the same day) were administered by IP injection to a group of 3 female NOD/SCID mice at 6-7 weeks of age. The mortality was monitored at 30 min and again at 3, 24, 48 and 72 hours after compound administrations.
# For body weight, test substance (Compound 1) at escalating doses (200 mg/kg) alone or in combination with […] (17.5 mg/kg; given on the same day) were administered by IP injection to a group of 3 female NOD/SCID mice at 6-7 weeks of age. The body weight of each animal was measured and recorded daily for 3 days.
# For behavioral, symptomatic i.e. neurological and autonomic signs, test substance (Compound 1; 200 mg/kg) alone or in combination with […] (17.5 mg/kg; given on the same day) were administered by IP injection to a group of 3 female NOD/SCID mice at 6-7 weeks of age. The animals were then observed for presences of acute toxic symptoms and autonomic effects for 30 min after the first dose.
compound,measurement,setting,value
"CCOC(=O)Nc1cc(-c2ccc(C)c(NS(C)(=O)=O)c2)nn2c(C)nnc12 [Bromosporine, reference compound]",IC50,[1],26 nM
C[C@H](NC[C@H](O)CP(=O)(O)CC1CCCCC1)c1ccc(Cl)c(Cl)c1 [CGP 54626],IC50,[2]; GABA GABAB(1b) (h) (antagonist radioligand),2.2 nM
N#CC(C#N)=NNc1cccc(Cl)c1 [Carbonyl cyanide 3-chlorophenylhydrazone],EC50,[3],10000 nM
same,GI50,[3],6210 nM
same,IC50,[3],10000 nM
same,EC50,[4],8840 nM
same,GI50,[4],6150 nM
same,IC50,[4],8840 nM
same,EC50,[5],553 nM
same,GI50,[5],308 nM
same,IC50,[5],1520 nM
same,EC50,[6],> 10000 nM
same,GI50,[6],175 nM
same,IC50,[6],> 10000 nM
CCCCCCCCCCCCCCCCOC[C@H](COP(=O)([O-])OCC[N+](C)(C)C)OC(C)=O [Compound C16-PAF],IC50,[2]; PLATELET ACTIVATED FACTOR PAF (h) (agonist radioligand),3.4 nM
"CCCOc1ccn2c(C(C)=O)cc(-c3ccccc3S(C)(=O)=O)c2c1 [GSK2801, reference compound]",IC50,[7],4400 nM
same,IC50,[8],10000 nM
same,IC50,[9],10000 nM
"Nc1ccn([C@@H]2O[C@H](CO)[C@@H](O)C2(F)F)c(=O)n1 [Gemcitabine, reference compound]",% T/C,[10]; Day 1,99%
same,% TGI,[10]; Day 1,1%
same,"Tumor Volume, Mean",[10]; Day 1,89 mm3
same,% T/C,[10]; Day 4,100%
same,% TGI,[10]; Day 4,0%
same,"Tumor Volume, Mean",[10]; Day 4,94 mm3
same,% T/C,[10]; Day 8,81%
same,% TGI,[10]; Day 8,19%
same,"Tumor Volume, Mean",[10]; Day 8,107 mm3
same,% T/C,[10]; Day 11,70%
same,% TGI,[10]; Day 11,30%
same,"Tumor Volume, Mean",[10]; Day 11,139 mm3
same,% T/C,[10]; Day 15,55%
same,% TGI,[10]; Day 15,45%
same,"Tumor Volume, Mean",[10]; Day 15,207 mm3
"CCC(=O)N1CCOc2c(cc(-c3ccc(OC)c(OC)c3)cc2OC[C@H]2CCCN(C)C2)C1 [I-CBP112, reference compound]",IC50,[11],24500 nM
"Cc1cc(/N=N/c2cc(S(=O)(=O)O)c(C)cc2C)c(N)cc1O [Ischemin, reference compound]",IC50,[12],5200 nM
same,IC50,"[13]; Table 4, read-out: Reference IC50",86000 nM
same,IC50,"[13]; Table 9, inhibition/concentration-response curve, read-out: IC50",11000 nM
N[C@@H](CCC(=O)O)C(=O)O [L-glutamate],IC50,[2]; GLUTAMATE CHANNELS AMPA (agonist radioligand),370 nM
C[C@]12N[C@H](Cc3ccccc31)c1ccccc12 [MK 801],IC50,[2]; GLUTAMATE CHANNELS PCP (antagonist radioligand),9.6 nM
CCCCC[C@H](O)/C=C/[C@@H]1[C@@H](C/C=C\CCCC(=O)O)[C@@H](O)C[C@H]1O [PGF2alpha],IC50,[2]; […] (h) (agonist radioligand),3 nM
"COc1ccc(CCc2nc3cc(-c4c(C)noc4C)ccc3n2C[C@H](C)N2CCOCC2)cc1Cl [SGC-CBP30, reference compound]",IC50,[14],130 nM
CN[C@@H]1C[C@H]2O[C@@](C)([C@@H]1OC)n1c3ccccc3c3c4c(c5c6ccccc6n2c5c31)C(=O)NC4 [Staurosporine],GI50,[3],0.19 nM
same,EC50,[4],0.49 nM
same,GI50,[4],0.33 nM
same,GI50,[5],0.5 nM
same,EC50,[6],2.29 nM
same,GI50,[6],0.91 nM
"C[C@@H]1C[C@@H]([C@H](O)CC2CC(=O)NC(=O)C2)C(=O)[C@@H](C)C1 [cycloheximide, reference compound]",EC50,[3],505 nM
same,GI50,[3],588 nM
same,IC50,[3],2770 nM
same,EC50,[4],285 nM
same,GI50,[4],369 nM
same,IC50,[4],871 nM
same,EC50,[5],117 nM
same,GI50,[5],36.9 nM
same,IC50,[5],593 nM
same,EC50,[6],3650 nM
same,GI50,[6],306 nM
same,IC50,[6],10000 nM
CN1C(=O)CN=C(c2ccccc2)c2cc(Cl)ccc21 [diazepam],IC50,[2],9.4 nM
COc1ccc([C@@H]2Sc3ccccc3N(CCN(C)C)C(=O)[C@@H]2OC(C)=O)cc1 [diltiazem],IC50,"[2]; Ca2+ channel (L, diltiazem site) (benzothiazepines) (antagonist radioligand)",57 nM
C=C(C)[C@H]1CN[C@H](C(=O)O)[C@H]1CC(=O)O [kainic acid],IC50,[2],23 nM
C=C(C)[C@@H]1[C@H]2OC(=O)[C@@H]1[C@]1(O)C[C@H]3O[C@]34C(=O)O[C@H]2[C@]14C [picrotoxinin],IC50,[2]; Cl- channel (GABA-gated) (antagonist radioligand),330 nM
NPY,IC50,[2]; NE[…] Y1 (h) (agonist radioligand),0.16 nM
TNF-alpha,IC50,[2]; CYTOKINES TNF-alpha (h) (agonist radioligand),0.16 nM
"[Nleu13]-motilin (FVPIFTYGELQRLQEKERNKGQ; Motilin norleucine at 13; UniProt P12872 26-47, looked up, variant M13L)",IC50,[2]; motilin(h) (agonist radioligand),0.89 nM
alpha -bungarotoxin,IC50,[2],1.9 nM
carboplatin [reference compound],Response (death/test),[15]; 30 min,0/3
same,Response (death/test),[15]; 3 hrs,0/3
same,Response (death/test),[15]; Day 1,0/3
same,Response (death/test),[15]; Day 2,0/3
same,Response (death/test),[15]; Day 3,0/3
glucagon,IC50,[2]; glucagon (h) (agonist radioligand),1 nM
omega -conotoxin GVIA,IC50,[2],0.0017 nM
